By EC50 is commonly meant the concentration at which the effect is half-maximal.

This assay deals with T1, human mGluR2 (Homo sapiens, UniProt Q14416).
T1 construct: expressed in transfected cells; host or cells: CHO cells, stably transfected; membrane preparation
T1 sequence (Q14416 19-872): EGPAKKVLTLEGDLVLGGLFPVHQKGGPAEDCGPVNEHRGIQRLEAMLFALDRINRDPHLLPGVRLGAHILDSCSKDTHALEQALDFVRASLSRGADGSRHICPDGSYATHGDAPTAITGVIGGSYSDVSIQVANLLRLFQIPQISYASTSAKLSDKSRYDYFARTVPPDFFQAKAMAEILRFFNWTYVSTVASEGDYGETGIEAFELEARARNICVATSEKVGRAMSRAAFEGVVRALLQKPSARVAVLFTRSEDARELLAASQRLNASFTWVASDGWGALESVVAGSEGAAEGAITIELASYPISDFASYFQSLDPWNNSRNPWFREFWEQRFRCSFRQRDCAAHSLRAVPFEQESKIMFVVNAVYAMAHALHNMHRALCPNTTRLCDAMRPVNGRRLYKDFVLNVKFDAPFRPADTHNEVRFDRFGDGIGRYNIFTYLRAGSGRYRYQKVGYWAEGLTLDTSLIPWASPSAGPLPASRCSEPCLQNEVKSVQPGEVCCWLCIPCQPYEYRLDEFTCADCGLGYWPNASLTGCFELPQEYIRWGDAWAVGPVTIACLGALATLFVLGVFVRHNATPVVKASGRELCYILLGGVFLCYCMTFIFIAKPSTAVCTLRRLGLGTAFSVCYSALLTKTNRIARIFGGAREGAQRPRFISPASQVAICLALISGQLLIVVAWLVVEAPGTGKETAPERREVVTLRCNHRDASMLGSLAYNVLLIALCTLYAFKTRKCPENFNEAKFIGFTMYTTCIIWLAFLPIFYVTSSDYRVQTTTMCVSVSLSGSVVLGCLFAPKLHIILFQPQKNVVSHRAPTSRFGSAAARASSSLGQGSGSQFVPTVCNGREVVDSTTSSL
Briefly: [35S]-GTPγS binding assay of mGluR2 receptor activation (allosteric activator activity). The format is biochemical. The note with it: membranes from CHO cells stably expressing human mGluR2; in presence of 1 μM glutamate. As for the experimental part: A [^35S]-GTPγS binding assay was used to functionally assay mGluR2 receptor activation. The allosteric activator activity of compounds at the human mGluR2 receptor were measured using a [^35S]-GTPγS binding assay with membranes prepared from CHO cells which stably express the human mGluR2. The assay is based upon the principle that agonists bind to G-protein coupled receptors to stimulate GDP-GTP exchange at the G-protein. Since [^35S]-GTPγS is a non-hydrolyzable GTP analog, it can be used to provide an index of GDP-GTP exchange and, thus, receptor activation. The GTPγS binding assay therefore provides a quantitative measure of receptor activation.
Membranes were prepared from CHO cells stably transfected with human mGluR2. Membranes (30 μg protein) were incubated with test compound (3 nM to 300 μM) for 15 minutes at room temperature prior to the addition of 1 μM glutamate, and incubated for 30 min at 30° C. in 500 μL assay buffer (20 mM HEPES, 100 mM NaCl, 10 mM MgCl2), containing 30 μM GDP and 0.1 nM [^35S]-GTPγS (1250 Ci/mmol). Reactions were carried out in triplicate in 2 mL polypropylene 96-well plates. Reactions were terminated by vacuum filtration using a Packard 96-well harvester and Unifilter-96, GF/B filter microplates. The filter plates were washed 4×1.5 mL with ice-old wash buffer (10 mM sodium phosphate buffer, pH 7.4). The filter plates were dried and 35 μL of scintillation fluid (Microscint 20) was added to each well. The amount of radioactivity bound was determined by counting plates on a Packard TopCount. Data was analyzed using GraphPad Prism, and […] and Emax values (relative to the maximum glutamate effect) were calculated using non-linear regression.
(In general: Binding of GTPγS marks nucleotide exchange on a G protein.)
Consider `O=C1OC2(CCCCC2)CN1Cc1ccc(-c2ccccc2)cc1` [Example 3.2, 3-Biphenyl-4-ylmethyl-1-oxa-3-aza-spiro[4.5]decan-2-one], for which the EC50 turned out to be 95 nM. Turning to `O=C1OC2(CCC3(CC2)OCCO3)CN1Cc1ccc(-c2ccc(F)cc2)cc1` [Example 1.49, 3-(4′-Fluoro-biphenyl-4-ylmethyl)-1,9,12-trioxa-3-aza-dispiro[4.2.4.2]tetradecan-2-one], the EC50 was 381 nM. To `O=C1OC2(CCCCC2)CN1Cc1ccc(-c2ccccc2CN2CCOCC2)cc1` [Example 1.1, 3-(2′-Morpholin-4-ylmethyl-biphenyl-4-ylmethyl)-1-oxa-3-aza-spiro[4.5]decan-2-one] belongs 326 nM. To `O=C1OC2(CCCCC2)CN1Cc1ccc(-c2ccc(Oc3ccccc3)cc2)cc1` [Example 1.6, 3-(4′-Phenoxy-biphenyl-4-ylmethyl)-1-oxa-3-aza-spiro[4.5]decan-2-one] belongs 14 nM; to `O=C1OC2(CCCCC2)CN1Cc1ccc(-c2ccc(NCCN3CCOCC3)nc2)cc1` [Example 1.30, 3-{4-[6-(2-Morpholin-4-yl-ethylamino)-pyridin-3-yl]-benzyl}-1-oxa-3-aza-spiro[4.5] decan-2-one], 1000 nM.

Source of the values: US7790717B2, “Spiro-oxazolidinone compounds and their use as metabotropic glutamate receptor potentiators” (AstraZeneca AB, priority 2006, dated 2010).
